Laboratory results: patent publication US11076595B2, “1-(n,n-disubstituted carbamoyl) 4-(substituted sulfonyl)triazolin-5-one derivative, 4-(n,n-disubstituted carbamoyl) 1-(substituted sulfonyl)triazolin-5-one derivative, and herbicide containing said derivative as active ingredient” (HOKKO CHEMICAL INDUSTRY CO., LTD., priority 2017, dated 2021)

Columns and labels:
Format in all cases: in vivo
Lindernia pyxidaria [1] = experiment: Test Example 12: herbicidal effect test by treatment during growing period in paddy field; conditions: 120 g/10a; treatment seven days after sowing in flooded paddy pot; assessed 14 days after treatment
Summary of the method: (§1)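 Seeds (30 per species) are sown shallowly into fertilized, puddled paddy soil kept under ~3 cm of water in a greenhouse. One week later, compound formulated as an emulsifiable concentrate is applied dropwise to the water at 120 g a.i./10 are. After 14 days, dry weights give percent suppression against untreated controls.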

Scirpus juncoides [2] = experiment: as above; conditions: 120 g/10a; treatment seven days after sowing in flooded paddy pot; assessed 14 days after treatment
Summary of the method: as §1

Monochoria vaginalis [3] = experiment: as above; conditions: 120 g/10a; treatment seven days after sowing in flooded paddy pot; assessed 14 days after treatment
Summary of the method: as §1

Echinochloa crus-galli [4] = experiment: as above; conditions: 120 g/10a; treatment seven days after sowing in flooded paddy pot; assessed 14 days after treatment
Summary of the method: as §1

Lindernia pyxidaria [5] = experiment: Test Example 11: herbicidal effect test by soil treatment in paddy field; conditions: 120 g/10a active ingredient, 14 days after treatment
Summary of the method: (§2)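 Dry weight at day 14 relative to untreated controls gives the suppression rate; duplicate pots. Treatment: 120 g a.i./10 are into paddy water at sowing.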

Scirpus juncoides [6] = experiment: as above; conditions: 120 g/10a active ingredient, 14 days after treatment
Summary of the method: as §2

Monochoria vaginalis [7] = experiment: as above; conditions: 120 g/10a active ingredient, 14 days after treatment
Summary of the method: as §2

Echinochloa crus-galli [8] = experiment: as above; conditions: 120 g/10a active ingredient, 14 days after treatment
Summary of the method: as §2

SMILES | Weed suppression rate (%) Lindemia pyxidaria (Lindernia pyxidaria [1]) | Weed suppression rate (%) Scirpus juncoides (Scirpus juncoides [2]) | Weed suppression rate (%) Monochoria vaginalis (Monochoria vaginalis [3]) | Weed suppression rate (%) Echinochloa crus-galli (Echinochloa crus-galli [4]) | Weed suppression rate (%) Lindemia pyxidaria (Lindernia pyxidaria [5]) | Weed suppression rate (%) Scirpus juncoides (Scirpus juncoides [6]) | Weed suppression rate (%) Monochoria vaginalis (Monochoria vaginalis [7]) | Weed suppression rate (%) Echinochloa crus-galli (Echinochloa crus-galli [8])
Cc1cc(N(C(=O)n2cnn(S(=O)(=O)C(C)C)c2=O)C(C)C)no1 [Compound 11-91] | 80% | 90% | 80% | 90% | 80% | 90% | 80% | 90%
CC(C)N(C(=O)n1cnn(S(=O)(=O)N(C)C)c1=O)c1ccccc1F [Compound 11-1054] | 80% | 90% | 80% | 90% | 80% | 90% | 80% | 90%
CC(C)N(C(=O)n1cnn(S(=O)(=O)c2ccccc2Cl)c1=O)c1cccc(F)c1F [Compound 11-511] | 80% | 100% | 100% | 100% | 100% | 100% | 90% | 100%
Cc1cc(C)c(S(=O)(=O)n2ncn(C(=O)N(c3ccc(Cl)cn3)C(C)C)c2=O)c(C)c1 [Compound 11-889] | 70% | 90% | 80% | 100% | 100% | 90% | 80% | 100%
CC(C)N(C(=O)n1cnn(S(=O)(=O)C(C)C)c1=O)c1ccc(Br)cc1Cl [Compound 11-70] | 70% | 100% | 90% | 100% | 100% | 100% | 90% | 100%
CN(C(=O)n1cnn(S(=O)(=O)C2CC2)c1=O)c1ccc(F)cc1F [Compound 11-140] | 70% | 100% | 70% | 100% | 70% | 80% | 70% | 90%
CN(C(=O)n1cnn(S(=O)(=O)c2cccs2)c1=O)c1ccc(F)cc1F [Compound 11-1147] | 70% | 100% | 90% | 100% | 100% | 70% | 70% | 100%
CC(C)N(C(=O)n1cnn(S(=O)(=O)c2ccc(C(C)(C)C)cc2)c1=O)c1c(F)c(F)cc(F)c1F [Compound 11-687] | 70% | 70% | 80% | 100% | 100% | 90% | 100% | 80%
CC(C)N(C(=O)n1cnn(S(=O)(=O)c2ccc(F)cc2)c1=O)c1ccccc1F [Compound 11-465] | 80% | 90% | 80% | 90% | 80% | 90% | 80% | 90%
CC(C)N(C(=O)n1cnn(S(=O)(=O)C2CCCCC2)c1=O)c1ccc(Br)cc1Cl [Compound 11-305] | 90% | 100% | 100% | 100% | 100% | 90% | 100% | 100%
Cc1ccc(S(=O)(=O)n2ncn(C(=O)N(c3ccc(F)c(F)c3F)C(C)C)c2=O)cc1 [Compound 11-640] | 70% | 90% | 100% | 80% | 100% | 90% | 70% | 100%
CC(C)N(C(=O)n1cnn(S(=O)(=O)C2CC2)c1=O)c1ccc(Cl)cc1Br [Compound 11-210] | 80% | 90% | 80% | 90% | 90% | 90% | 80% | 90%
CC(C)N(C(=O)n1cnn(S(=O)(=O)c2ccccc2Cl)c1=O)c1ccc(F)c(F)c1F [Compound 11-515] | 70% | 100% | 100% | 100% | 90% | 100% | 80% | 100%
Cc1cc(C)c(S(=O)(=O)n2ncn(C(=O)N(c3c(F)c(F)cc(F)c3F)C(C)C)c2=O)c(C)c1 [Compound 11-868] | 90% | 60% | 80% | 90% | 100% | 100% | 70% | 100%
Cc1ccc(S(=O)(=O)n2ncn(C(=O)N(c3ccc(Cl)cc3F)C(C)C)c2=O)cc1 [Compound 11-645] | 90% | 60% | 90% | 60% | 90% | 90% | 90% | 100%
CC(C)N(C(=O)n1cnn(S(=O)(=O)c2cccc(F)c2)c1=O)c1c(F)c(F)cc(F)c1F [Compound 11-443] | 70% | 100% | 70% | 70% | 70% | 100% | 70% | 80%
CC(C)N(C(=O)n1cnn(S(=O)(=O)c2ccc(C(C)(C)C)cc2)c1=O)c1ccc(F)c(F)c1F [Compound 11-685] | 60% | 60% | 70% | 80% | 100% | 60% | 100% | 90%
CC(C)N(C(=O)n1cnn(S(=O)(=O)C2CC2)c1=O)c1cccc(F)c1 [Compound 11-161] | 80% | 90% | 80% | 90% | 100% | 90% | 70% | 100%
CC(C)N(C(=O)n1cnn(S(=O)(=O)c2cccc(F)c2)c1=O)c1cccc(F)c1F [Compound 11-437] | 100% | 100% | 100% | 100% | 80% | 80% | 80% | 100%
CC(C)N(C(=O)n1cnn(S(=O)(=O)c2cccs2)c1=O)c1ccc(Cl)cc1Br [Compound 11-1034] | 70% | 70% | 70% | 90% | 90% | 100% | 70% | 100%
